Assay results: article PMC5768637, “In Vitro and in Silico Evidence of Phosphatase Diversity in the Biomineralizing Bacterium Ramlibacter tataouinensis” (Frontiers in Microbiology, 2018)

Key:
[1] = target: T1, Rta PhoX1 (Ramlibacter tataouinensis, UniProt F5Y472); assay: p-nitrophenol release at […] nm, total soluble protein of expressing E. coli; assay type: biochemical; conditions: 50 mM Tris pH 8, 5 mM CaCl2, 5 mM MgCl2, 0.6 mM substrate
T1 construct: gene Rta_14460; codon-optimised synthetic gene in pET-22b (MscI/BamHI), E. coli BL21(DE3); total soluble protein extract; precursor 643 aa, predicted Tat signal 51 aa; no precursor form seen on SDS-PAGE
T1 sequence (F5Y472 52-643): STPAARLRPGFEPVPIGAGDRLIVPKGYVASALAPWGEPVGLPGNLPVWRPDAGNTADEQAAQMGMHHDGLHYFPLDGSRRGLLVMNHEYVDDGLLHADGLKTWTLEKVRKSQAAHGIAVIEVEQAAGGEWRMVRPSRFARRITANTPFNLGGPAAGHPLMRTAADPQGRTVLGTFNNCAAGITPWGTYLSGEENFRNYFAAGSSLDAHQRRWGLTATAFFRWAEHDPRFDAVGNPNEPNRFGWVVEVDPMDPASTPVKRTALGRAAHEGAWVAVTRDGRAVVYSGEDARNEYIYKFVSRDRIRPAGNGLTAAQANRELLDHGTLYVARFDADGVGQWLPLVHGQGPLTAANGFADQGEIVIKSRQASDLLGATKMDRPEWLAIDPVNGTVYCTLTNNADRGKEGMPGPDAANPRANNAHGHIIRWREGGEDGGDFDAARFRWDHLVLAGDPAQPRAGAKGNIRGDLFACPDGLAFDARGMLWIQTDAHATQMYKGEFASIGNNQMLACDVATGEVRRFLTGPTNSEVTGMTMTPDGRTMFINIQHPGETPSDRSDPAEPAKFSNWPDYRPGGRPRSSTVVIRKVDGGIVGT

[2] = target: T2, Rta PhoD (Ramlibacter tataouinensis, UniProt F5XVP7); assay: as above; assay type: biochemical; conditions: 50 mM Tris pH 8, 5 mM CaCl2, 5 mM MgCl2, 0.6 mM substrate
T2 construct: codon-optimised synthetic gene in pET-22b (MscI/BamHI), E. coli BL21(DE3); total soluble protein extract; precursor 530 aa, predicted Tat signal 31 aa; no precursor form seen on SDS-PAGE
T2 sequence (F5XVP7 32-530): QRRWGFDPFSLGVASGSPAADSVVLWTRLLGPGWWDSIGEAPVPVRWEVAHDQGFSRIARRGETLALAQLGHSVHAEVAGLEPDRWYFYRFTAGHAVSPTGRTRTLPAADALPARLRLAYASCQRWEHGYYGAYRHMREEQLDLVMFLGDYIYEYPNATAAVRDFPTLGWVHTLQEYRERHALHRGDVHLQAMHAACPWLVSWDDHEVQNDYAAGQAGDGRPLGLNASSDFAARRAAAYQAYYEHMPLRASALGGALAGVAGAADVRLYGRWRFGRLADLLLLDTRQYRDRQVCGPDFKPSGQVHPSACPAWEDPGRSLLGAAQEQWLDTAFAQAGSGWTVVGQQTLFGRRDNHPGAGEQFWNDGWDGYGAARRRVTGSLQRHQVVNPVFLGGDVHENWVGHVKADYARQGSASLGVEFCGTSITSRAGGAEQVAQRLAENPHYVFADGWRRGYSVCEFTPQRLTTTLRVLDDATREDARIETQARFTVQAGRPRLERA

| SMILES | p-nitrophenol release at 405 nm, total soluble protein of expressing E. coli [1] | p-nitrophenol release at 405 nm, total soluble protein of expressing E. coli [2] |
| --- | --- | --- |
| O=[N+]([O-])c1ccc(OP(=O)(O)Oc2ccc([N+](=O)[O-])cc2)cc1 [bis-pNPP, bis p-nitrophenylphosphate] | PhoD and PhoX1 hydrolyzed all the pNPP derivatives (pNPP, bis-pNPP, and TpNPP) | the activity of PhoD was higher for bis-pNPP diester |
| O=[N+]([O-])c1ccc(OP(=O)(O)O)cc1 [pNPP, p-nitrophenylphosphate] | the activity of PhoX1 was higher for monoester | PhoD and PhoX1 hydrolyzed all the pNPP derivatives (pNPP, bis-pNPP, and TpNPP) |
